Here are results for 20 compounds from publication PMC8347709 (International Journal of Molecular Sciences, 2021).

One data set deals with CB2. Details: method as in PMID 29921889, PMID 33379862. The conditions noted are these: Figure 1; cited from earlier work.
For data set [1], the target named is T1, hCB2R (Homo sapiens, UniProt P34972). The conditions noted are these: cited from earlier work.
On the set-up of data set [2]: method as in PMID 30342565, PMID 2173751. The conditions noted are these: cited from earlier work.
The target of data set [3] is T1, hCB2R. The experiment in a line: competitive radioligand displacement with [3H]WIN55212-2 on hCB2-CHO membrane preparations. The arrangement: host or cells: CHO cells, stably transfected. The conditions noted are these: hCB2-CHO membranes, read-out: Ki(hCB2R). It counts as binding.
Text: In brief, membrane preparations obtained from CHO cell lines stably transfected with either human CB1 (hCB1-CHO; obtained from Euroscreen, Gosselies, Belgium) or human CB2 (hCB2-CHO; obtained from Paul L. Prather, Department of Pharmacology and Toxicology, College of Medicine, University of Arkansas for Medical Sciences, Fayetteville, AR, USA) were used along with [^3H]SR141716A (1554 GBq/mmol; PerkinElmer Life and Analytical Sciences, Rodgau, Germany) and [^3H]WIN55212-2 (6438 GBq/mmol; PerkinElmer Life and Analytical Sciences, Rodgau, Germany), resp., as target-specific radioligands. The incubations were performed in 50 mM TRIS-HCl, pH 7.4, supplemented with 0.1% bovine serum albumin (BSA), 5 mM MgCl2, and 1 mM EDTA for 90 min at room temperature. Various concentrations of test compounds were administered, and the non-specific binding was determined in the presence of 10 μM 56. The values of bound activity were used to determine affinity (Ki) values using non-linear regression analysis (GraphPad Prism 2.01, v9, San Diego, CA, USA) and based on the KD values of [^3H]56 determined by saturation experiments [54].
Human CB2 receptors were expressed in CHO cells, and affinities were determined by competitive radioligand displacement experiments using [^3H]WIN552122. […]
The target in data set [4] is T2, CB2R in rat spleen tissue (Rattus norvegicus, UniProt Q9QZN9).
T2 construct: from tissue; host or cells: rat spleen cryosections (female SPRD rat)
T2 sequence (Q9QZN9 1-360): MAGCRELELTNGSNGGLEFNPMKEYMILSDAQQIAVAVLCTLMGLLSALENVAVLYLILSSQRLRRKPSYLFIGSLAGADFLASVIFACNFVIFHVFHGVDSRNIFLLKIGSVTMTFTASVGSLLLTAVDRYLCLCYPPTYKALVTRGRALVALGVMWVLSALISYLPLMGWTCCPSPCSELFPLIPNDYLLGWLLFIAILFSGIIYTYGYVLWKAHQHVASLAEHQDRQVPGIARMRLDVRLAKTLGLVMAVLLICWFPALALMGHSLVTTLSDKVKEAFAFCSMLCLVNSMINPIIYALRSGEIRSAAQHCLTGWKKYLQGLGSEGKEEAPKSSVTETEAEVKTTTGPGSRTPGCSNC
Details: method as in PMID 27713686. The conditions noted are these: previously reported; cited from earlier work.

Read-outs that look alike come from different tables or passages of the source.

T1 sequence (P34972 whole entry): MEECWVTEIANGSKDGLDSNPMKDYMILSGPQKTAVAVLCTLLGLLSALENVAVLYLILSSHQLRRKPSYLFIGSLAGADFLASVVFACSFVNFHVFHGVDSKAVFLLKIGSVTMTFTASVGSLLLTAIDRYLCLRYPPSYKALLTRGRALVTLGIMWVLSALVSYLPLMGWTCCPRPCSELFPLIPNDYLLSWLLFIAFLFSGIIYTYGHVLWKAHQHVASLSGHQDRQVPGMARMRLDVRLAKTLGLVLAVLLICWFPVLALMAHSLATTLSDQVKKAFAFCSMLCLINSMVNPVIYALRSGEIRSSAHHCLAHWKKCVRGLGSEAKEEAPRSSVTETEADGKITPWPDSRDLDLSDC

As for `CCOCCn1cc(C(=O)NC23CC4CC(CC(C4)C2)C3)c(=O)c2cccc(OCC[18F])c21` [[^18F]RS-122], the Ki – broadly, a dissociation constant, usually derived from enzyme kinetics or from competition with a known ligand – on CB2 is 72 nM. On to `CCOCCn1cc(C(=O)NC23CC4CC(CC(C4)C2)C3)c(=O)c2cccc(O[11CH3])c21` [[^11C]RS-016], for which, at CB2, the Ki was 0.7 nM.

With `COc1cccc2c(=O)c(C(=O)NC34CC5CC(CC(C5)C3)C4)cn(CCCOCCC[18F])c12` [[^18F]AH-043], the Ki on CB2 was 6.3 nM.

With `CCCCOc1c(O[11CH3])ccc2cc(C(=O)NC3CCCCC3)c(=O)[nH]c12` [[^11C]NE40], the Ki at CB2 is 9.6 nM.

With `CC1CCC(NC(=O)c2cc3cccnc3n(CCCCF)c2=O)CC1` (stereo not shown) [compound 5, 1-(4-Fluorbutyl)-N-(4-methyl)-2-oxo-1,2-dihydro-1,8-naphthyridine-3-carboxamide], the Ki is 1.4 nM at hCB2R [1] (HEK-293 membranes, [3H]CP-55,940) and 1.3 nM on hCB2R [1] (diastereomeric mixture, published value). On to `CCCCCn1cc(C(=O)NC23CC4CC(CC(C4)C2)C3)c(=O)c2cccc(O[11CH3])c21` [[^11C]KD2], for which the Ki on CB2 was 1.7 nM. For `Cc1s/c(=N\C(=O)C2C(C)(C)C2(C)C)n(CCCC[18F])c1C` [[^18F]JHU94620], the Ki on CB2 is 0.4 nM. In the case of (−)-Δ9-trans-tetrahydrocannabinol [THC], the LogD7.4 in data set [2] is greater than 7. Turning to `[2H]C([2H])([18F])C([2H])([2H])C([2H])([2H])OC(=O)C(CC)(CC)NC(=O)c1ccc(N2CC(OC)C2)c(OCC2CC2)n1` [[^18F]RoSMA-18-d6], the Ki at CB2 was 6 nM. Turning to `C[C@H]1CC[C@H](NC(=O)c2cc3cccnc3n(CCCCF)c2=O)CC1` [trans-5], the inhibition constant (Ki) at hCB2R [3] is 52 nM. In the case of `[11CH3]Oc1ccc2ncc(NCCCc3nc(-c4ccc(F)cc4Cl)no3)cc2c1` [[^11C]MA2], the Ki on CB2 is 87 nM. Turning to `CCC(CC)(NC(=O)c1ccc(N2CC(OC)C2)c(OCC2CC2)n1)C(=O)OCCC[18F]` [[^18F]2], the Ki at CB2 is 6 nM. On to `Fc1ccc(-c2noc(CCCNc3cnc4ccc(OCC[18F])cc4c3)n2)c(Cl)c1` [[^18F]MA3], for which the Ki at CB2 was 0.8 nM. The “visualisation of CB2 receptors in rodent spleen tissue” value in data set [4] was “inability to visualise CB2 receptors in rodent spleen tissue”.

As to `CCCCOc1c(OCC[18F])ccc2cc(C(=O)NC3CCCCC3)c(=O)[nH]c12` [[^18F]1], the Ki at CB2 is 36 nM. Regarding `CCOC(=O)C(CC)(CC)NC(=O)c1ccc(N2CC(O[11CH3])C2)c(OCC2CC2)n1` [[^11C]RSR-056], the Ki at CB2 was 2.5 nM. `Cc1s/c(=N\C(=O)C2C(C)(C)C2(C)C)n(CCOCC[18F])c1C` [[^18F]FC024]: at CB2, the Ki was 0.1 nM. For the compound `COc1cccc2c(=O)c(C(=O)NC34CC5CC(CC(C5)C3)C4)cn(CCOCCCC[18F])c12` [[^18F]AH-040], at CB2, the Ki is 0.9 nM.

For the compound `COc1cccc2c(=O)c(C(=O)NC34CC5CC(CC(C5)C3)C4)cn(CCOCCC[18F])c12` [[^18F]RS-126], the Ki on CB2 is 1.2 nM. For the compound `C[C@H]1CC[C@@H](NC(=O)c2cc3cccnc3n(CCCCF)c2=O)CC1` [cis-5], the Ki at hCB2R [3] is 6 nM. Consider `Cc1s/c(=N\C(=O)C2C(C)(C)C2(C)C)n(CCO[11CH3])c1C` [[^11C]A-836339], for which the Ki on CB2 is 0.7 nM.
